This note sets out measurements from patent US20100317850A1 (priority 2008, published 2010).

Where two headings read alike, the source gives them in different places.

This assay relates to Aβ42 production. Put plainly: Quantification of Aβ peptide in culture of neurons from rat fetus brain (Aβ ELISA). Format: cell-based. Conditions: rat primary neuronal culture (cerebral cortex, embryonic day 18 Wistar rats), medium collected three days after addition of the compound, Aβx-42 ELISA, read-out: Aβ42 production reducing effect IC50. The gist of the method: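 Primary cortical neurons from embryonic day 18 Wistar rats were cultured 4 days, then exposed to compound in Neurobasal/B27 without 2-ME, final DMSO ≤1%. After three days, medium was collected and Aβx-42 measured undiluted by sandwich ELISA.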

Take `NC1=N[C@@]2(c3cc(NC(=O)c4ccc(OC(F)F)cn4)ccc3F)CO[C@H](CF)[C@H]2CS1` [Example 72, N-[3-((4aS,5,7aS)-2-amino-5-fluoromethyl-4a,5-dihydro-4H-furo[3,4-d][1,3]thiazin-7a-yl)-4-fluorophenyl]-5-difluoromethoxypyridine-2-carboxamide]: the half-maximal inhibitory concentration (IC50) (Neuron, 72 h) came to 2 nM. `NC1=N[C@@]2(c3cc(NC(=O)c4cnc(C(F)F)cn4)ccc3F)CO[C@H](CF)[C@H]2CS1` [Example 73, N-[3-((4aS,5S,7aS)-2-amino-5-fluoromethyl-4a,5-dihydro-4H-furo[3,4-d][1,3]thiazin-7a-yl)-4-fluorophenyl]-5-difluoromethylpyrazine-2-carboxamide]: where the note is “Neuron, 72 h”, the half-maximal inhibitory concentration (IC50) amounted to 7 nM.

Turning to `NC1=N[C@@]2(c3cc(NC(=O)c4cnc(OCF)cn4)ccc3F)CO[C@H](CF)[C@H]2CS1` [Example 75, N-[3-((4aS,5,7aS)-2-amino-5-fluoromethyl-4a,5-dihydro-4H-furo[3,4-d][1,3]thiazin-7a-yl)-4-fluorophenyl]-5-fluoromethoxypyrazine-2-carboxamide], the IC50 (Neuron, 72 h) was 3 nM. Take `NC1=N[C@@]2(c3cccc(-c4cccnc4F)c3)CN(C(=O)c3ccccc3)C[C@H]2CS1` [Example 82]: the IC50 (Neuron, 72 h) stood at 425 nM.

Regarding `NC1=N[C@@]2(c3cccc(-c4cccnc4F)c3)CN(C(=O)C3CC3)C[C@H]2CS1` [Example 84], the half-inhibitory concentration (IC50) (Neuron, 72 h) amounted to 893 nM.

For `NC1=N[C@@]2(c3cccc(-c4cccnc4F)c3)CN(c3cnccn3)C[C@H]2CS1` [Example 87], the IC50 (Neuron, 72 h) amounted to 62 nM.

For the molecule `NC1=N[C@@]2(c3cccc(-c4cccnc4F)c3)CN(c3cccc(F)n3)C[C@H]2CS1` [Example 88], where the note is “Neuron, 72 h”, the IC50 was 75 nM. Same read-out and setting: in the case of `Cc1cnc(C(=O)Nc2ccc(F)c([C@]34CCCC[C@H]3CSC(N)=N4)c2)cn1` [Example 117] it was 158 nM; in that of `NC1=N[C@@]2(c3cc(NC(=O)c4ncc(Br)cn4)ccc3F)CCCC[C@H]2CS1` [Example 120], 38 nM; in that of `NC1=N[C@@]2(c3cc(NC(=O)c4ncccn4)ccc3F)CCCC[C@H]2CS1` [Example 121], 263 nM. For `NC1=N[C@@]2(c3cc(NC(=O)c4ccc(Br)o4)ccc3F)CCCC[C@H]2CS1` [Example 122], under “Neuron, 72 h”, the IC50 is 123 nM. In the case of `N#Cc1cnc(C(=O)Nc2ccc(F)c([C@]34CCC[C@H]3CSC(N)=N4)c2)nc1` [Example 126], where the note is “Neuron, 72 h”, the 50% inhibitory concentration (IC50) came out at 70 nM. `CNC(=O)c1ccc(C(=O)Nc2ccc(F)c([C@]34CCC[C@H]3CSC(N)=N4)c2)nc1` [Example 127]: the IC50 (Neuron, 72 h) stood at 214 nM. Same read-out and setting: in the case of `CCOC(=O)c1cnc(C(=O)Nc2ccc(F)c([C@]34CCC[C@H]3CSC(N)=N4)c2)nc1` [Example 128] it was 231 nM; in that of `NC(=O)c1ccc(C(=O)Nc2ccc(F)c([C@]34CCC[C@H]3CSC(N)=N4)c2)nc1` [Example 129], 65 nM; in that of `NC1=N[C@@]2(c3cc(NC(=O)c4ccc(C5CC5)cn4)ccc3F)CCC[C@H]2CS1` [Example 134], 86 nM.

Regarding `NC1=N[C@@]2(c3cc(NC(=O)c4ccc5cnccc5n4)ccc3F)CCC[C@H]2CS1` [Example 138], the half-inhibitory concentration (IC50) (Neuron, 72 h) came out at 63 nM. Regarding `NC1=N[C@@]2(c3cc(NC(=O)c4ccc5ccccc5n4)ccc3F)CCC[C@H]2CS1` [Example 139], where the note is “Neuron, 72 h”, the IC50 turned out to be 169 nM.

In the case of `NC1=N[C@@]2(c3cc(NC(=O)c4cnc5ccccc5n4)ccc3F)CCC[C@H]2CS1` [Example 140], the IC50 (Neuron, 72 h) stood at 67 nM. For `C[C@H]1OC[C@H]2CSC(N)=N[C@]21c1cc(NC(=O)c2ccc(C#N)cn2)ccc1F` [Example 151], the IC50 (Neuron, 72 h) was 167 nM. With `N#Cc1ccc(C(=O)Nc2ccc(F)c([C@]34CO[C@H](CF)[C@H]3CSC(N)=N4)c2)nc1` [Example 164, N-[3-((4aS,5S,7aS)-2-amino-5-fluoromethyl-4a,5-dihydro-4H-furo[3,4-d][1,3]thiazin-7a-yl)-4-fluorophenyl]-5-cyanopyridine-2-carboxamide], the half-inhibitory concentration (IC50) (Neuron, 72 h) is 1 nM. Regarding `Cc1cnc(C(=O)Nc2ccc(F)c([C@]34CCC[C@H]3CSC(N)=N4)c2)cn1` [Example 195], the IC50 (Neuron, 72 h) is 68 nM. `NC1=N[C@@]2(c3cc(NC(=O)c4ccc(OCc5ccccc5)cn4)ccc3F)CCC[C@H]2CS1` [Example 196]: the IC50 (Neuron, 72 h) came out at 977 nM. Still for that read-out and setting: with `Cc1cc(Cl)ccc1C(=O)Nc1ccc(F)c([C@]23CCC[C@H]2CSC(N)=N3)c1` [Example 197] the figure was 220 nM.

In the case of `NC1=N[C@@]2(c3cc(NC(=O)c4ncccn4)ccc3F)CCC[C@H]2CS1` [Example 198], the IC50 (Neuron, 72 h) is 129 nM. As to `NC1=N[C@@]2(c3cc(NC(=O)c4ncc(Br)cn4)ccc3F)CCOC[C@H]2CS1` [Example 199], the 50% inhibitory concentration (IC50) (Neuron, 72 h) was found to be 12 nM. `NC1=N[C@@]2(c3cc(NC(=O)c4ncc(F)cc4F)ccc3F)CCOC[C@H]2CS1` [Example 200]: the IC50 (Neuron, 72 h) was found to be 44 nM.

`CO[C@H]1CC[C@]2(c3cc(NC(=O)c4cnc(C(F)F)cn4)ccc3F)N=C(N)SC[C@@H]2C1` [Example 205]: the IC50 (Neuron, 72 h) amounted to 25 nM. For `NC1=N[C@@]2(c3cc(NC(=O)c4nc5ccccc5s4)ccc3F)CCCC[C@H]2CS1` [Example 223], the IC50 (Neuron, 72 h) amounted to 316 nM. Take `NC1=N[C@@]2(c3cc(NC(=O)c4cnccn4)ccc3F)CCCC[C@H]2CS1` [Example 224]: the IC50 (Neuron, 72 h) came to 271 nM.

As for `Cc1ccc(C(=O)Nc2ccc(F)c([C@]34CCCC[C@H]3CSC(N)=N4)c2)nc1` [Example 225], the concentration for half-maximal inhibition (IC50) (Neuron, 72 h) came out at 198 nM. Take `NC1=N[C@@]2(c3cccc(-c4cncnc4)c3)CN(c3cnccn3)C[C@H]2CS1` [Example 230]: the half-maximal inhibitory concentration (IC50) (Neuron, 72 h) is 202 nM. Take `NC1=N[C@@]2(c3cc(NC(=O)c4ccncn4)ccc3F)CCC[C@H]2CS1` [Example 233]: the IC50 (Neuron, 72 h) was found to be 86 nM. Turning to `Cc1cccnc1C(=O)Nc1ccc(F)c([C@]23CCC[C@H]2CSC(N)=N3)c1` [Example 236], the IC50 (Neuron, 72 h) was 59 nM. Same read-out and setting: with `CC(=O)c1ccc(C(=O)Nc2ccc(F)c([C@]34CCC[C@H]3CSC(N)=N4)c2)nc1` [Example 237] the figure was 80 nM; with `COc1cccnc1C(=O)Nc1ccc(F)c([C@]23CCC[C@H]2CSC(N)=N3)c1` [Example 238], 350 nM.

For `Cn1cc(-c2ccc(C(=O)Nc3ccc(F)c([C@]45CCC[C@H]4CSC(N)=N5)c3)nc2)cn1` [Example 239], where the note is “Neuron, 72 h”, the IC50 was determined as 238 nM.

Take `NC1=N[C@@]2(c3cc(NC(=O)c4ncccc4F)ccc3F)CCCCC[C@H]2CS1` [Example 251]: the IC50 (Neuron, 72 h) was 120 nM. As to `NC1=N[C@@]2(c3cc(NC(=O)c4ncccc4C(F)(F)F)ccc3F)CCCCC[C@H]2CS1` [Example 252], the IC50 (Neuron, 72 h) is 187 nM. Consider `NC1=N[C@@]2(c3cc(NC(=O)c4ncccc4Br)ccc3F)CCCCC[C@H]2CS1` [Example 253], for which the IC50 (Neuron, 72 h) turned out to be 171 nM.

For the molecule `NC1=N[C@@]2(c3cc(NC(=O)c4ccc(Br)cn4)ccc3F)CCCC[C@H]2CS1` [Example 254], the IC50 (Neuron, 72 h) is 43 nM. As for `NC1=N[C@@]2(c3cc(NC(=O)c4ccccn4)ccc3F)CCCC[C@H]2CS1` [Example 255], the IC50 (Neuron, 72 h) came out at 158 nM. With `NC1=N[C@@]2(c3cc(NC(=O)c4ncccc4Cl)ccc3F)CCCC[C@H]2CS1` [Example 258], the IC50 (Neuron, 72 h) was 376 nM. As for `NC1=N[C@@]2(c3cc(NC(=O)c4ncccc4F)ccc3F)CCCC[C@H]2CS1` [Example 259], for the setting “Neuron, 72 h”, the IC50 was 372 nM. In the case of `NC1=N[C@@]2(c3cc(NC(=O)c4ncccc4Br)ccc3F)CCCC[C@H]2CS1` [Example 260], the IC50 (Neuron, 72 h) was 170 nM. Same read-out and setting: with `NC1=N[C@@]2(c3cc(NC(=O)c4ncccc4C(F)(F)F)ccc3F)CCCC[C@H]2CS1` [Example 261] the figure was 277 nM. For “N-[3-((4aR*,9aS*)-2- amino-4a,5,6,7,8,9-hexahydro-4H- cyclohepta[d][1,3]thiaziin-9a-yl)-4- fluorophenyl]-6-chloropyridine-2- carboxamide [Example 248]”, the IC50 is 16 nM.
